In patent publication US10287617B2, “Methods for in vitro—in vivo efficacy determination” (COLORADO STATE UNIVERSITY RESEARCH FOUNDATION, priority 2014, dated 2019):
Values after ≈ are worked out from the molar mass of the structure shown. “Also recorded” adds a separate entry of the source. Read-outs that look alike come from different tables or passages of the source. Marks after values point to notes of the source that are not given here.

Experiments:
M. tuberculosis H37Rv [1] = test: MIC / dose response by modified microplate Alamar Blue assay (MABA); type: cell-based, Mycobacterium tuberculosis; settings: for drug concentration response curve (kill curve) type: FIG. 3
[2] = tested on: non-replicating M. tuberculosis H37Rv; test: Low oxygen study, non-replicating bacilli; type: cell-based, Mycobacterium tuberculosis; settings: for Log10 (CFU+/−SD): 96 h post-treatment; for % Growth Reduction: benzimidazoles at 4 μg/mL; for Log10 (CFU) Reduction: vs control
Procedure: The low oxygen studies were performed similar to those described previously (Lenaerts et al., Antimicrob. Agents Chemother. 2005; 49:2294-2301). Briefly, M. tuberculosis H37Rv were diluted to an O.D. 600 nm of 0.003 in 7H9 media containing Methylene Blue (1.5 μg/mL) and were grown in 16×125 mm Hungate tubes with rubber septa (VWR cat#89167-170). The tubes, with 11 mL of the diluted cultures were incubated at 37° C. under agitation (150 rpm). […] One week after the reduction of methylene blue, approximately 28 days from the start, drug treatment was initiated with the test and control drugs. Prior to treatment, an aliquot was removed and plated for a CFU count to serve as a control. Isoniazid and metronidazole were used in the studies as comparative controls.
Recovery of aliquots for plating and the addition of drugs were conducted through septa using syringes to maintain the low-oxygen conditions. Ninety-six hours post-treatment, 1 mL of the culture was removed from the oxygen depleted cultures, the aliquot was serial diluted and the dilutions were plated. Log10 CFUs were calculated for the different treatments and concentrations. Percentage growth reduction from the controls was calculated and reported.

M. tuberculosis H37Rv [3] = test: Acute infection model in immune incompetent GKO mice; type: in vivo, mouse; settings: compound 150 mg/kg IP q.d. 9 days, isoniazid 25 mg/kg q.d.
Procedure: (§1) Compound efficacy was assessed in two murine models of infection based on the short term model described previously (Lenaerts et al., Antimicrob. Agents Chemother. 2003; 47:783-785). All aerosol infections were performed using a Middlebrook aerosol generation devise (Glas-Col, Terre Haute, Ind.).
(§2) In the first infection model, immune incompetent C57BL/6-Ifngtm1 ts gamma interferon gene disruption (GKO) mice were infected with M. tuberculosis H37Rv. Animals were dosed q.d. IP beginning at day 12 post-infection with 150 mg/kg of compound in 38% ethanol and 10% Solutol (e.g., Solutol HS 15) for 9 consecutive days. In the second animal model, immune competent C57BL/6 mice were infected with M. tuberculosis Erdman (TMCC 107). Animals were dosed b.i.d. IP with 100 mg/kg compound in 25% ethanol and 25% Solutol beginning at day 5 post-in feet ion for 10 consecutive days. Isoniazid was used as a comparative positive control and was delivered q.d. at 25 mg/kg as a positive control.
(§3) In both studies, animals were sacrificed and necropsied, bacterial burden in lungs or spleens were quantified on 7H11 agar containing carbenicillin (Sigma, C1389) and cycloheximide (Sigma, C7698) and upon incubation for three weeks bacterial colony forming units were enumerated. Outliers were identified by the Grubbs' Test and a one-way t-test at a 95% confidence interval was used to compare treatment groups and controls, to calculate p-values, and to produce bar graphs and scatter plots GraphPad Prism Version 5.0d for Mac OS X (GraphPad Software, San Diego Calif., USA www.graphpad.com).

M. tuberculosis Erdman [4] = test: Dissemination model in immune competent C57BL/6 mice; type: in vivo, mouse; settings: isoniazid 25 mg/kg q.d.; for reduction of bacterial load in the spleen: compound 100 mg/kg IP b.i.d. 10 days
Procedure: as §1, §2, §3

M. tuberculosis Erdman [5] = type: in vivo; settings: for Δ Lungs (difference between means of Test and Control Groups) / Δ Spleen (difference between means of Test and Control Groups) / Log10CFU Lungs / Log10CFU Spleen: 50 mg/kg b.i.d. (Inh q.d.); for Log10CFU Lungs / Log10CFU Spleen: day 15
[6] = tested on: Mycobacteria tuberculosis; test: MIC and drug response curve type (Tables A and B); type: cell-based, Mycobacterium tuberculosis; settings: Table A; for Curve: drug response curve type; for MIC: in µg/mL
Procedure: A drug concentration response curve can be generated by graphing the log10 drug concentrations (μg/mL) against the difference in growth between the drug-treated wells and control wells. See FIG. 3C, and FIG. 5 (entries for SB-P23D8 and SB-P26D9). A NREBA is indicative of bacteriostatic activity above the MIC.
(§4) Further analysis using the methods described herein was performed on the compounds found in Tables A and B (bold font compounds are shown in FIG. 11) resulting in the data found therein.
MIC values were determined for the benzimidazoles using a modified 96-well microplate Alamar Blue (resazurin) assay (MABA) (see Kumar et al., J. Med. Chem. 2011; 54:374-381; Collins and Franzblau, Antimicrob. Agents Chemother. 1997; 41:1004-1009). Dose response curves were generated from the MABA assay for compounds by graphing the log10 drug concentrations against the difference in growth between the drug-treated wells and control wells using GraphPad Prism Version 5.0d for Mac OS X (GraphPad Software, San Diego Calif., USA, www.graphpad.com). For time dose studies, bacterial growth in the presence of compound was monitored by the O.D. 600 nm. […] The values were plotted against time using GraphPad Prism Version 5.0d for Mac OS X (GraphPad Software, San Diego Calif., USA, www.graphpad.com).

M. tuberculosis = test: Benzimidazoles activity tested in animals (animal models of infection, Table A); type: in vivo, mouse; settings: Table A
Procedure: as §4, §1

M. tuberculosis H37Rv [7] = test: Growth inhibition / time dose curves (OD600 and CFU); type: cell-based, Mycobacterium tuberculosis; settings: for reduction in number of viable bacteria: 1×MIC
M. tuberculosis TN587 = test: microbe, parasite or virus in culture; type: cell-based, Mycobacterium tuberculosis
M. tuberculosis NHN382 = test: microbe, parasite or virus in culture; type: cell-based, Mycobacterium tuberculosis
M. tuberculosis W210 = test: microbe, parasite or virus in culture; type: cell-based, Mycobacterium tuberculosis
M. tuberculosis NHN20 = test: microbe, parasite or virus in culture; type: cell-based, Mycobacterium tuberculosis
Mtb FtsZ = Mtb FtsZ (Mycobacterium tuberculosis, UniProt P9WN95); test: FtsZ polymerization by transmission electron microscopy; type: biochemical; settings: FtsZ 5 μM, GTP 25 μM, compound 40 μM and 80 μM
Sequence of Mtb FtsZ (P9WN95 whole entry, looked up): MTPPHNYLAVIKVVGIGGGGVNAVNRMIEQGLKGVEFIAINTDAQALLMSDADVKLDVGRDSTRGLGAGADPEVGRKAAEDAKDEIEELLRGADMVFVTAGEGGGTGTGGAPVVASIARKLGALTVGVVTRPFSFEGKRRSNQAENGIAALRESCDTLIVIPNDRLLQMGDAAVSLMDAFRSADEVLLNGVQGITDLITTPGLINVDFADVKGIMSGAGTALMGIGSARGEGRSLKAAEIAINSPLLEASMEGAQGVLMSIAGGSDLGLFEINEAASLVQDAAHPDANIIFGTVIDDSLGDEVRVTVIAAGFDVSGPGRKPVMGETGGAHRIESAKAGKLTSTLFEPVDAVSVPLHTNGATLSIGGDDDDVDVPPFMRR

[8] = tested on: M. tuberculosis clinical isolates; test: microbe, parasite or virus in culture; type: cell-based, Mycobacterium tuberculosis
[9] = Plasma stability in mouse plasma; settings: percent remaining
Procedure: Plasma was spiked with the compound in order to obtain a final drug concentration of 100 ng/mL (expressed as non-salified compound). The spiked plasma (dedicated to C1h and C4h) was then incubated at 37° C. for 1 h and 4 h. Plasma samples were analyzed by LC-MS/MS following protein precipitation. The limit of quantification for compounds was 10 ng/mL.
10 μL of the sample was injected to Luna Phenomenex C8 (50 mm×2.0 mm, 3 μm). Solvent A: ammonium acetate (0.15 g)/formic acid (2 mL)/HPLC water up to 1000 mL. Solvent B: ammonium acetate (0.15 g)/formic acid (2 mL)/Methanol (200 mL)/Acetonitrile up to 1000 mL, flow rate of 0.3 mL/min, t=0-6 min. gradient of 10-90% of B. Retention time for SB-P17G-C2 was 1.85 min and for SB-P17G-A20 was 3.3 min. MS/MS condition used for detection: Finnigan TSQ Quantum disco instrument, Excalibur version 2.0 acquisition system, ESI positive ion ionization mode. The mean percent of difference between C1h or C4h and C0 concentrations was calculated. M % D (%)=100×[(C1h or C4h)−C0]/C0
The compounds were considered as stable if the mean percent of difference between C4h and C0 concentrations was less than 20%.

[10] = Oxidative metabolic lability in human liver microsomes; settings: for Liver Microsome Lability Human: 5 μM, 1 mg/mL microsomal protein, 20 min
Procedure: (§5) Microsomal fractions were prepared in the Drug Disposition Domain at DSAR Montpellier (371 rue du Pr. J. Blayac, 34184 Montpellier Cedex 04, France). […] The flavin-containing monooxygenases (FMO)-dependent reactions were run in the presence of bovine serum albumin (BSA, 0.1%) for the duration of 0 and 20 min (with or without microsomal proteins and/or cofactors). […] Following protein precipitation with acetonitrile and their removal by centrifugation, supernatant fluids were analyzed by LC/MS-MS.
(§6) Thermo Finnigan TSQ Quantum Ultra instrument, ESI positive ion ionization mode. Each compound is studied in duplicates. Results are expressed in percentage of lability (or total metabolism). Total metabolism=[1−(UC_Peak Area+Cofactor at T20)/(UC_Peak Area Reference at T0)]×100
(§7) The reactions were prepared as described and were run in the presence of bovine scrum albumin (BSA, 0.1%) for the duration of 0 and 20 min (with or without microsomal proteins and/or cofactors). Enzyme activity was stopped, the protein was precipitated and removed by centrifugation. The supernatant fluids were analyzed by LC/MS-MS. […] A Thermo Finnigan TSQ Quantum Ultra instrument, ESI positive ion ionization mode was used for MS/MS. Each compound was studied in duplicates. Results are expressed in percentage of lability (or total metabolism) using the following formula: Total metabolism=[1−(UC_Peak Area+Cofactor at T20)/(UC_Peak Area Reference at T0)]×100 where UC=Unchanged Compound; “Reference” sample was NADPH for liver microsomal preparation.

[11] = Oxidative metabolic lability in mouse liver microsomes; settings: for Liver Microsome Lability Mouse: 5 μM, 1 mg/mL microsomal protein, 20 min
Procedure: as §5, §6, §7

Vero cells = test: Cytotoxicity assay (resazurin, 72 h); type: cell-based; settings: at 200 μg/mL
Procedure: The cytotoxicity assay was performed as described previously^16. Briefly compounds were serially diluted in 96 well plates.

M. tuberculosis H37Rv [12] = settings: previously reported SAR study; cited from earlier work
[13] = tested on: M. tuberculosis clinical isolates; settings: previously reported; cited from earlier work

SMILES | drug concentration response curve (kill curve) type (M. tuberculosis H37Rv [1]) | Log10 (CFU+/−SD) [2] | % Growth Reduction [2] [%] | Log10 (CFU) Reduction [2] | reduction of bacterial load in spleen (M. tuberculosis H37Rv [3]) | reduction of bacterial load in the lungs (M. tuberculosis H37Rv [3]) [log10 CFU] | reduction of bacterial load in the spleen (M. tuberculosis Erdman [4]) | Δ Lungs (difference between means of Test and Control Groups) (M. tuberculosis Erdman [5]; IP) | Δ Spleen (difference between means of Test and Control Groups) (M. tuberculosis Erdman [5]; IP) | Log10CFU Lungs (M. tuberculosis Erdman [5]; IP) [Log10 CFU] | Log10CFU Spleen (M. tuberculosis Erdman [5]; IP) [Log10 CFU] | Δ Lungs (difference between means of Test and Control Groups) (M. tuberculosis Erdman [5]; PO) | Δ Spleen (difference between means of Test and Control Groups) (M. tuberculosis Erdman [5]; PO) | Log10CFU Lungs (M. tuberculosis Erdman [5]; PO) [Log10 CFU] | Curve [6] | MIC [6] | Efficacy Lung (M. tuberculosis) | Efficacy Spleen (M. tuberculosis) | Liver Microsome Lability Human [10] [%] | Liver Microsome Lability Mouse [11] [%] | further results
NNC(=O)c1ccncc1 [Isoniazid, reference compound] | sigmoidal kill curve | 5.15 ± 0.2 | 36 | 0.2 | below the level of detection | 1.8 | below detectable levels | −6.57*** Log10 CFU | −4.96*** Log10 CFU | 0.12 ± 0.16 | 0 ± 0 | −6.31*** Log10 CFU | −3.89*** Log10 CFU | 0 ± 0 |  |  |  |  |  |  | reduction of bacterial load in the lung (M. tuberculosis Erdman [4]): below detectable levels; Log10CFU Spleen (M. tuberculosis Erdman [5]; PO): 0 ± 0 Log10 CFU
CCCCOC(=O)Nc1cc2nc(C3CCCCC3)[nH]c2cc1N(CC)CC [SB-P3G2] | sigmoidal kill curves | 4.80 ± 0.21 | 72 | 0.48 | 0.41±0.36 log10 CFU | 0.71±0.17 | 1.6±0.49 log10 |  |  |  |  |  |  |  | Sigmoid | 1.25 | Yes | Yes |  |  | MIC range (M. tuberculosis H37Rv [1]; H37Rv and Erdman strains): 0.78 to 1.5 µg/mL; concentrations at which bacterial growth was inhibited (M. tuberculosis H37Rv [7]; O.D. 600 nm growth curves, 5 days): greater than 0.62 μg/mL
CN(C)c1cc2nc(C3CCCCC3)[nH]c2cc1NC(=O)c1ccc(OC(F)(F)F)cc1 [SB-P17G-A20] |  |  |  |  |  |  |  |  |  |  |  |  |  |  | Sigmoid | .31 | Yes | Yes | 39 | 45 | MIC (M. tuberculosis H37Rv [1]): 0.16 μg/m; MIC (M. tuberculosis H37Rv [1]; H37Rv): 0.16 µg/mL (≈ 0.358 µM); MIC (M. tuberculosis TN587): 0.16 µg/mL (≈ 0.358 µM); MIC (M. tuberculosis NHN382): 0.16 µg/mL (≈ 0.358 µM); MIC (M. tuberculosis W210): 0.16 µg/mL (≈ 0.358 µM); MIC (M. tuberculosis NHN20): 0.16 µg/mL (≈ 0.358 µM); concentration that steadily reduced bacterial viability (M. tuberculosis H37Rv [7]; CFU plating): 0.08 µg/mL; lowest concentration at which bacterial growth was reduced (M. tuberculosis H37Rv [7]; in some cases): 0.125 ×MIC; effect on FtsZ polymerization and aggregation (TEM) (Mtb FtsZ): fewer, shorter and thinner FtsZ polymers; MIC against different clinical strains [8]: 0.16 µg/mL (≈ 0.358 µM); plasma stability (4 hours) in mice [9]: 75.6%; metabolic stability (liver microsomes) in humans ([10]; percent remaining): 61%; metabolic stability (liver microsomes) in mice ([11]; percent remaining): 55%
CN(C)c1cc2[nH]c(C3CCCCC3)nc2cc1NC(=O)c1ccc(C(F)(F)F)cc1F [SB-P17G-A42] |  |  |  |  |  |  |  | −5.78*** Log10 CFU | −4.96*** Log10 CFU | 0.91 ± 0.64 | 0 ± 0 | −5.65*** Log10 CFU | −3.89*** Log10 CFU | 0.66 ± 0.43 | Sigmoid | .156 | Yes | Yes | 12 | 13 | MIC (M. tuberculosis H37Rv [1]; H37Rv): 0.18 ± 0.1 µg/mL (≈ 0.401 µM); MIC (M. tuberculosis H37Rv [1]; Mycobacterium tuberculosis, H37RV): 0.18 ± 0.1 µg/mL (≈ 0.401 µM); MIC (M. tuberculosis TN587; Mycobacterium tuberculosis): 0.24 ± 0.11 µg/mL (≈ 0.535 µM); MIC (M. tuberculosis NHN382; Mycobacterium tuberculosis): 0.16 µg/mL (≈ 0.357 µM); MIC (M. tuberculosis W210; Mycobacterium tuberculosis): 0.31 µg/mL (≈ 0.691 µM); MIC (M. tuberculosis NHN20; Mycobacterium tuberculosis): 0.16 µg/mL (≈ 0.357 µM); reduction in number of viable bacteria (M. tuberculosis H37Rv [7]; day 2): 2.5 Log10 CFU; reduction in number of viable bacteria (M. tuberculosis H37Rv [7]; day 6): ~4 Log10 CFU; reduction of bacterial load in the lungs (M. tuberculosis Erdman [5]; 50 mg/kg b.i.d. via either IP or PO): 5.6-5.8 Log10 CFU; Log10CFU Spleen (M. tuberculosis Erdman [5]; PO): 0 ± 0 Log10 CFU; reduction of bacterial load in the lungs (M. tuberculosis Erdman [5]; delivered IP, 50 mg/kg b.i.d.): 5.8 Log10 CFU; reduction of bacterial load in the lungs (M. tuberculosis Erdman [5]; delivered PO, 50 mg/kg b.i.d.): 5.6 Log10 CFU; cytotoxicity in Vero cells (Vero cells): not cytotoxic; also recorded: non-toxic; MIC ([8]; Mycobacterium tuberculosis, read-out: minimal inhibitory concentrations): 0.16 to 0.47 µg/mL (≈ 0.357 to 1.05 µM)
CCCCOC(=O)Nc1cc2nc(C3CCCCC3)[nH]c2cc1N(C)C [SB-P17G-C2] |  |  |  |  |  |  |  |  |  |  |  |  |  |  | Sigmoid | .063 | Yes (.3464) | No | 90 | 96 | MIC (M. tuberculosis H37Rv [12]): 0.06 µg/mL (≈ 0.167 µM); MIC against clinical isolates [13]: 0.06 to 0.13 µg/mL
